These are literature values, as cited in patent publication US20200129574A1 (priority 2018, published 2020).

The subject of one data set is prostate cancer cells. The settings on record: in vitro.
For data set [1], the system named is several tumor cell types, including prostate cancer cell lines, and primary prostate tumor lines. The conditions noted are these: several tumor cell types incl. prostate cancer cell lines and primary prostate tumor lines.

As for Vitamin D, the “expression of a6 and 134 integrins” value with a6 and 134 integrins was “decreased expression”. Also, in the data set on prostate cancer cells, the “effect on invasion of prostate cancer cells” value is recorded as “decrease invasion”. Further, the “effect on proliferation and differentiation of tumor cells” value in data set [1] is “inhibit proliferation and promote differentiation”.
